The target of the assay is PAI-1 (Homo sapiens, UniProt P05121). The experiment in a line: PAI chromogenic substrate assay (first S2251 assay, tPA/plasminogen system). The class given is biochemical. In short, it runs like this: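 Compound preincubated with PAI-1, then added to a tPA/plasminogen system; residual tPA activity generates plasmin, which cleaves chromogenic substrate S2251, releasing p-nitroaniline read at 405 nm.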

The structures appear in SMILES notation. Structures can show the parent of a compound that is named as a salt.

Sequence of PAI-1 (P05121 24-402): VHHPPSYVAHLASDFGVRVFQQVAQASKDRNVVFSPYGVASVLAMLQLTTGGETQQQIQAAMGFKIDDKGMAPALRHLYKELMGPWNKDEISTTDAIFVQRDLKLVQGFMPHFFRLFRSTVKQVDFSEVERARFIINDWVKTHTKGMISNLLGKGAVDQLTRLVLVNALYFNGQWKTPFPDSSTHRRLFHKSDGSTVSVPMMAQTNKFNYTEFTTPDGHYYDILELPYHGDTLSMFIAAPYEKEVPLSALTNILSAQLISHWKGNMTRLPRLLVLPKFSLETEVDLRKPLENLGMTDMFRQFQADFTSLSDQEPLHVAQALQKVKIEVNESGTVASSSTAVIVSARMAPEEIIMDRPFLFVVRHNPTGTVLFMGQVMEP

Regarding `COc1ccc(/C=c2\[nH]c(=O)/c(=C/c3ccc(O)cc3Cl)[nH]c2=O)cc1` [Compound 84, (3Z,6Z)-3-(2-Chloro-4-hydroxybenzylidene)-6-(4-methoxybenzylidene)-2,5-piperazinedione], the Inhibition of PAI-1 in the first S2251 chromogenic substrate assay reads like this: (Concentration 6.25 μm) 1%; (Concentration 12.5 μm) 2%; (Concentration 25 μm) 10%; (Concentration 50 μm) 38%; (Concentration 100 μm) 52%.

In the case of `O=c1[nH]/c(=C\c2ccc(O)cc2Cl)c(=O)[nH]/c1=C\c1ccccc1` [Compound 85, (3Z,6Z)-6-Benzylidene-3-(2-chloro-4-hydroxybenzylidene)-2,5-piperazinedione], the Inhibition of PAI-1 in the first S2251 chromogenic substrate assay is, setting by setting: (Concentration 6.25 μm) 13%; (Concentration 12.5 μm) 27%; (Concentration 25 μm) 43%; (Concentration 50 μm) 49%; (Concentration 100 μm) 35%.

Take `CC(=O)Nc1ccc(/C=c2\[nH]c(=O)/c(=C/c3ccc(N(C)C)cc3)[nH]c2=O)cc1` [Compound 86, (3Z,6Z)-3-(4-Acetamidobenzylidene)-6-(4-dimethylaminobenzylidene)-2,5-piperazinedione]: the Inhibition of PAI-1 in the first S2251 chromogenic substrate assay is 31% (Concentration 6.25 μm); 41% (Concentration 12.5 μm); 48% (Concentration 25 μm); 37% (Concentration 50 μm); 23% (Concentration 100 μm).

Take `COc1ccc(/C=c2\[nH]c(=O)/c(=C/c3ccc(NC(=O)COC(C)=O)cc3)[nH]c2=O)cc1` [Compound 87, (3Z,6Z)-3-(4-Acetoxyacetylaminobenzylidene)-6-(4-methoxybenzylidene)-2,5-piperazinedione]: the Inhibition of PAI-1 in the first S2251 chromogenic substrate assay runs as follows: (Concentration 6.25 μm) 0%; (Concentration 12.5 μm) 28%; (Concentration 25 μm) 70%; (Concentration 50 μm) 81%; (Concentration 100 μm) 78%.

Compound `COc1ccc(/C=c2\[nH]c(=O)/c(=C/c3ccc(NC(=O)CO)cc3)[nH]c2=O)cc1` [Compound 88, (3Z,6Z)-3-(4-Hydroxyacetylaminobenzylidene)-6-(4-methoxybenzylidene)-2,5-piperazinedione] showed an Inhibition of PAI-1 in the first S2251 chromogenic substrate assay (Concentration 6.25 μm) of 0%; an Inhibition of PAI-1 in the first S2251 chromogenic substrate assay (Concentration 12.5 μm) of 40%; an Inhibition of PAI-1 in the first S2251 chromogenic substrate assay (Concentration 25 μm) of 60%; an Inhibition of PAI-1 in the first S2251 chromogenic substrate assay (Concentration 50 μm) of 49%; an Inhibition of PAI-1 in the first S2251 chromogenic substrate assay (Concentration 100 μm) of 41%.

As for `CN(C)c1ccc(/C=c2\[nH]c(=O)/c(=C/c3ccccc3)[nH]c2=O)c2ccccc12` [Compound 89], the Inhibition of PAI-1 in the first S2251 chromogenic substrate assay runs as follows: (Concentration 6.25 μm) 7%; (Concentration 12.5 μm) 40%; (Concentration 25 μm) 66%; (Concentration 50 μm) 55%; (Concentration 100 μm) 63%.

With `COc1ccc(/C=c2\[nH]c(=O)/c(=C/c3ccccc3)[nH]c2=O)cc1OC` [Compound 90, (3Z,6Z)-6-Benzylidene-3-(3,4-dimethoxybenzylidene)-2,5-piperazinedione], the Inhibition of PAI-1 in the first S2251 chromogenic substrate assay runs as follows: (Concentration 6.25 μm) 0%; (Concentration 12.5 μm) 6%; (Concentration 25 μm) 33%; (Concentration 50 μm) 85%; (Concentration 100 μm) 75%.

Regarding `COc1ccc(/C=c2\[nH]c(=O)/c(=C/c3ccc(OC)c(OC)c3)[nH]c2=O)cc1` [Compound 91, (3Z,6Z)-3-(3,4-Dimethoxybenzylidene)-6-(4-methoxybenzylidene)-2,5-piperazinedione], the Inhibition of PAI-1 in the first S2251 chromogenic substrate assay amounted to 0% (Concentration 6.25 μm); 0% (Concentration 12.5 μm); 3% (Concentration 25 μm); 72% (Concentration 50 μm); 50% (Concentration 100 μm).

As for `COc1ccc(/C=c2\[nH]c(=O)/c(=C/c3ccc(NC(C)=O)cc3)[nH]c2=O)cc1OC` [Compound 92], the Inhibition of PAI-1 in the first S2251 chromogenic substrate assay turned out to be 17% (Concentration 6.25 μm); 12% (Concentration 12.5 μm); 38% (Concentration 25 μm); 44% (Concentration 50 μm); 86% (Concentration 100 μm).

As to `COC(=O)COc1ccc(/C=c2\[nH]c(=O)/c(=C/c3ccccc3)[nH]c2=O)cc1` [Compound 93, 4-[(3Z,6Z)-6-Benzylidene-2,5-dioxopiperazin-3-ylidene]methylphenoxyacetic acid, methyl ester], the Inhibition of PAI-1 in the first S2251 chromogenic substrate assay (Concentration 6.25 μm) worked out at 2%; the Inhibition of PAI-1 in the first S2251 chromogenic substrate assay (Concentration 12.5 μm) was found to be 7%; the Inhibition of PAI-1 in the first S2251 chromogenic substrate assay (Concentration 25 μm) worked out at 39%; the Inhibition of PAI-1 in the first S2251 chromogenic substrate assay (Concentration 50 μm) amounted to 68%; the Inhibition of PAI-1 in the first S2251 chromogenic substrate assay (Concentration 100 μm) was found to be 91%.

`COC(=O)CCCC(=O)NCc1ccc(/C=c2\[nH]c(=O)/c(=C/c3ccccc3)[nH]c2=O)cc1` [Compound 94, 4-(4-[(3Z,6Z)-6-Benzylidene-2,5-dioxopiperazin-3-ylidene]methylbenzylcarbamoyl) butanoic acid, methyl ester]: the Inhibition of PAI-1 in the first S2251 chromogenic substrate assay reads like this: (Concentration 6.25 μm) 43%; (Concentration 12.5 μm) 76%; (Concentration 25 μm) 83%; (Concentration 50 μm) 62%; (Concentration 100 μm) 31%.

For `CCOC(=O)CCCCC(=O)NCc1ccc(/C=c2\[nH]c(=O)/c(=C/c3ccccc3)[nH]c2=O)cc1` [Compound 95], the Inhibition of PAI-1 in the first S2251 chromogenic substrate assay worked out at 10% (Concentration 6.25 μm); 16% (Concentration 12.5 μm); 45% (Concentration 25 μm); 71% (Concentration 50 μm); 69% (Concentration 100 μm).

Take `COC(=O)CCCCOc1ccc(/C=c2\[nH]c(=O)/c(=C/c3ccccc3)[nH]c2=O)cc1` [Compound 96, 5-[4-((3Z,6Z)-6-Benzylidene-2,5-dioxopiperazin-3-ylidene)methylphenoxy]pentanoic acid, methyl ester]: the Inhibition of PAI-1 in the first S2251 chromogenic substrate assay (Concentration 6.25 μm) is 5%; the Inhibition of PAI-1 in the first S2251 chromogenic substrate assay (Concentration 12.5 μm) worked out at 29%; the Inhibition of PAI-1 in the first S2251 chromogenic substrate assay (Concentration 25 μm) is 47%; the Inhibition of PAI-1 in the first S2251 chromogenic substrate assay (Concentration 50 μm) stood at 75%; the Inhibition of PAI-1 in the first S2251 chromogenic substrate assay (Concentration 100 μm) was found to be 77%.

As for `O=C(O)CCCCOc1ccc(/C=c2\[nH]c(=O)/c(=C/c3ccccc3)[nH]c2=O)cc1` [Compound 97, 5-[4-((3Z,6Z)-6-Benzylidene-2,5-dioxopiperazin-3-ylidene)methylphenoxy]pentanoic acid], the Inhibition of PAI-1 in the first S2251 chromogenic substrate assay by setting is: (Concentration 6.25 μm) 0%; (Concentration 12.5 μm) 0%; (Concentration 25 μm) 73%; (Concentration 50 μm) 24%; (Concentration 100 μm) 0%.

Turning to `CN(C)CCCOc1ccc(/C=c2\[nH]c(=O)/c(=C/c3ccccc3)[nH]c2=O)cc1` [Compound 98], the Inhibition of PAI-1 in the first S2251 chromogenic substrate assay (Concentration 6.25 μm) is 4%; the Inhibition of PAI-1 in the first S2251 chromogenic substrate assay (Concentration 12.5 μm) came out at 67%; the Inhibition of PAI-1 in the first S2251 chromogenic substrate assay (Concentration 25 μm) was 74%; the Inhibition of PAI-1 in the first S2251 chromogenic substrate assay (Concentration 50 μm) was determined as 71%; the Inhibition of PAI-1 in the first S2251 chromogenic substrate assay (Concentration 100 μm) worked out at 72%.

As to `CN(C)CCOc1ccc(/C=c2\[nH]c(=O)/c(=C/c3ccccc3)[nH]c2=O)cc1` [Compound 99, (3Z,6Z)-6-Benzylidene-3-(4-(2-N,N-dimethylaminoethoxy)benzylidene)-2,5-piperazinedione, hydrochloride], the Inhibition of PAI-1 in the first S2251 chromogenic substrate assay reads like this: (Concentration 2.5 μm) 0%; (Concentration 5 μm) 0%; (Concentration 10 μm) 17%; (Concentration 20 μm) 48%; (Concentration 40 μm) 68%.

These data come from patent US5700804A, “Pharmaceutical compounds” (Xenova Limited, priority 1992, dated 1997).
